# Data as given in patent EP0318620A1, “Herbicidal sulfonamides” (E.I. DU PONT DE NEMOURS AND COMPANY, priority 1987, dated 1989).
# Tests used:
# morningglory = test: Test A greenhouse herbicide test, pre- and postemergence; type: in vivo, Ipomoea spp.; conditions: rated after sixteen days
# Description: (§1) Seeds of crabgrass (Digitaria spp.), barnyardgrass (Echinochloa crusgalli), cheatgrass (Bromus Secalinus), giant foxtail (Setaria faberii), wild oats (Avena fatua), velvetleaf (Abutilon theophrasti), morningglory (Ipomoea spp. , cocklebur (Xanthium pensylvanicum). sorghum, corn, barley, soybean, sugarbeet, cotton, rice, wheat and purple nutsedge (Cyperus rotundus) tubers were planted and treated preemergence with the test chemicals dissolved in a non-phytotoxic solvent. At the same time, these crop and weed species were treated with a soil/foliage application. At the time of treatment, the plants ranged in height from 2 to 18 cm. Treated plants and controls were maintained in a greenhouse for sixteen days, after which all species were compared to controls and visually rated for response to treatment. The ratings, summarized in Table A, are based on a numerical scale extending from 0 = no injury, to 10 = complete kill. The accompanying descriptive symbols have the following meanings: • B = burn; • C = chlorosis/necrosis; • D = defoliation; • E = emergence inhibition; • G = growth retardation; • H = formative effect; • U = unusual pigmentation; • X = axillary stimulation; • S = albinism; and • 6Y = abscised buds or flowers.
# cocklebur [1] = test: as above; type: in vivo, Xanthium pensylvanicum; conditions: POSTEMERGENCE, rated after sixteen days
# Description: as §1
# wild oats [2] = test: as above; type: in vivo, Avena fatua; conditions: PREEMERGENCE; RATE 0.01 KG/HA; rated after sixteen days
# Description: as §1
# cheatgrass = test: as above; type: in vivo, Bromus Secalinus; conditions: rated after sixteen days
# Description: as §1
# giant foxtail = test: as above; type: in vivo, Setaria faberii; conditions: rated after sixteen days
# Description: as §1
# crabgrass = test: Test B pan test in Sassafras sandy loam soil, pre- and postemergence; type: in vivo, Digitaria sanguinalis; conditions: scale 0 to 100
# Description: (§2) Three round pans (25 cm diameter by 12.5 cm deep) were filled with Sassafras sandy loam soil. One pan was planted with nutsedge (Cyperus rotundus) tubers, crabgrass (Digitaria sanguinalis), sicklepod (Cassia obtusifolia), jimsonweed (Datura stramonium), velvetleaf (Abutilon theophrasti), lambsquarters (Chenopodim album), rice (Oryza sativa) and teaweed (Sida spinosa). The second pot was planted with green foxtail (Setaria viridis), cocklebur (Xantium pensyivanicum), morningglory (lpomoea hederacea), cotton (Gossypium hirsutum), johnsongrass (Sorghum halepense), barnyardgrass (Echinochloa crusgalli), corn (Zea mays), soybean (Glycine max) and giant foxtail (Setaria faberi). The third pot was planted with wheat (Triticum aestivum), barley (Hordeum vulgare), wild buckwheat (Polgonum convolvulus L.), cheatgrass (Bromus secalinus L.), sugarbeet (Beta vulgaris), wild oats (Avena fatua), viola (Viola arvensis), blackgrass (Alopecurus myosuroides), and rape (Brassica napus). The plants were grown for approximately fourteen days, then sprayed postemergence with the chemicals dissolved in a non-phytotoxic solvent.
# (§3) Three round pans (25 cm diameter by 12.5 cm deep) were filled with Sassafras sandy loam soil. One pan was planted with nutsedge tubers, crabgrass, sicklepod, jimsonweed, velvetleaf, lambsquarters, rice and teaweed. The second pot was planted with green foxtail, cocklebur, morningglory, cottom, johnsongrass, . barnyardgrass, corn, soybean and giant foxtail. The third pot was planted with wheat, barley, wild buckwheat, cheatgrass, sugarbeet, wild oat, viola, blackgrass and rape. The three pans were sprayed preemer gence with the chemicals dissolved in a non-phytotoxic solvent.
# (§4) Treated plants and controls were maintained in the greenhouse for 24 days, then all rated plants were compared to controls and visually rated for plant response.
# (§5) A dash (-) response means no test.
# velvetleaf = test: as above; type: in vivo, Abutilon theophrasti; conditions: scale 0 to 100
# Description: as §2, §3, §4, §5
# rice = test: as above; type: in vivo, Oryza sativa; conditions: scale 0 to 100
# Description: as §2, §3, §4, §5
# teaweed = test: as above; type: in vivo, Sida spinosa; conditions: scale 0 to 100
# Description: as §2, §3, §4, §5
# cocklebur [3] = test: as above; type: in vivo, Xantium pensyivanicum; conditions: scale 0 to 100
# Description: as §2, §3, §4, §5
# cotton = test: as above; type: in vivo, Gossypium hirsutum; conditions: scale 0 to 100
# Description: as §2, §3, §4, §5
# corn = test: as above; type: in vivo, Zea mays; conditions: scale 0 to 100
# Description: as §2, §3, §4, §5
# soybean = test: as above; type: in vivo, Glycine max; conditions: scale 0 to 100
# Description: as §2, §3, §4, §5
# wheat = test: as above; type: in vivo, Triticum aestivum; conditions: scale 0 to 100
# Description: as §2, §3, §4, §5
# wild oats [4] = test: as above; type: in vivo, Avena fatua; conditions: scale 0 to 100
# Description: as §2, §3, §4, §5
smiles,measurement,setting,value
"CCOC(=O)c1c(CC#N)cccc1S(=O)(=O)NC(=O)Nc1nc(OC)cc(OC)n1 [Compound 3, 2-(cyanomethyl)-6 [[(4,6-dimethoxypyrimidin-2-yl)-aminocarbonyl]aminosulfonyl]benzoic acid, ethyl ester]",MORNING GLORY visual rating of response to treatment,"morningglory; POSTEMERGENCE, RATE 0.01 KG/HA",10C
same,MORNING GLORY visual rating of response to treatment,"morningglory; POSTEMERGENCE, RATE 0.05 KG/HA",10C
same,MORNING GLORY visual rating of response to treatment,"morningglory; PREEMERGENCE, RATE 0.01 KG/HA",2G
same,MORNING GLORY visual rating of response to treatment,"morningglory; PREEMERGENCE, RATE 0.05 KG/HA",9G
same,COCKLEBUR visual rating of response to treatment,cocklebur [1]; RATE 0.01 KG/HA,10C
same,COCKLEBUR visual rating of response to treatment,cocklebur [1]; RATE 0.05 KG/HA,10C
same,WILD OATS visual rating of response to treatment,wild oats [2],3G
same,CHEATGRASS visual rating of response to treatment,"cheatgrass; POSTEMERGENCE, RATE 0.01 KG/HA",6G
same,CHEATGRASS visual rating of response to treatment,"cheatgrass; PREEMERGENCE, RATE 0.01 KG/HA",5G
same,CHEATGRASS visual rating of response to treatment,"cheatgrass; PREEMERGENCE, RATE 0.05 KG/HA",8H
same,GIANT FOXTAIL visual rating of response to treatment,"giant foxtail; POSTEMERGENCE, RATE 0.01 KG/HA",9C
same,GIANT FOXTAIL visual rating of response to treatment,"giant foxtail; POSTEMERGENCE, RATE 0.05 KG/HA",10C
same,GIANT FOXTAIL visual rating of response to treatment,"giant foxtail; PREEMERGENCE, RATE 0.01 KG/HA",5G
same,CRABGRASS response rating,"crabgrass; POSTEMERGENCE, RATE 0001 G/HA",0
same,CRABGRASS response rating,"crabgrass; POSTEMERGENCE, RATE 0004 G/HA",30
same,CRABGRASS response rating,"crabgrass; POSTEMERGENCE, RATE 0016 G/HA",50
same,CRABGRASS response rating,"crabgrass; POSTEMERGENCE, RATE 0062 G/HA",70
same,CRABGRASS response rating,"crabgrass; PREEMERGENCE, RATE 0004 G/HA",0
same,CRABGRASS response rating,"crabgrass; PREEMERGENCE, RATE 0016 G/HA",30
same,CRABGRASS response rating,"crabgrass; PREEMERGENCE, RATE 0062 G/HA",70
same,VELVETLEAF response rating,"velvetleaf; POSTEMERGENCE, RATE 0001 G/HA",70
same,VELVETLEAF response rating,"velvetleaf; POSTEMERGENCE, RATE 0004 G/HA",100
same,VELVETLEAF response rating,"velvetleaf; POSTEMERGENCE, RATE 0016 G/HA",100
same,VELVETLEAF response rating,"velvetleaf; POSTEMERGENCE, RATE 0062 G/HA",100
same,VELVETLEAF response rating,"velvetleaf; PREEMERGENCE, RATE 0004 G/HA",0
same,VELVETLEAF response rating,"velvetleaf; PREEMERGENCE, RATE 0016 G/HA",30
same,VELVETLEAF response rating,"velvetleaf; PREEMERGENCE, RATE 0062 G/HA",50
same,RICE response rating,"rice; POSTEMERGENCE, RATE 0001 G/HA",60
same,RICE response rating,"rice; POSTEMERGENCE, RATE 0004 G/HA",90
same,RICE response rating,"rice; POSTEMERGENCE, RATE 0016 G/HA",100
same,RICE response rating,"rice; POSTEMERGENCE, RATE 0062 G/HA",100
same,RICE response rating,"rice; PREEMERGENCE, RATE 0004 G/HA",0
same,RICE response rating,"rice; PREEMERGENCE, RATE 0016 G/HA",30
same,RICE response rating,"rice; PREEMERGENCE, RATE 0062 G/HA",80
same,TEAWEED response rating,"teaweed; POSTEMERGENCE, RATE 0001 G/HA",30
same,TEAWEED response rating,"teaweed; POSTEMERGENCE, RATE 0004 G/HA",50
same,TEAWEED response rating,"teaweed; POSTEMERGENCE, RATE 0016 G/HA",70
same,TEAWEED response rating,"teaweed; POSTEMERGENCE, RATE 0062 G/HA",100
same,TEAWEED response rating,"teaweed; PREEMERGENCE, RATE 0004 G/HA",0
same,TEAWEED response rating,"teaweed; PREEMERGENCE, RATE 0016 G/HA",0
same,TEAWEED response rating,"teaweed; PREEMERGENCE, RATE 0062 G/HA",0
same,COCKLEBUR response rating,"cocklebur [3]; POSTEMERGENCE, RATE 0001 G/HA",70
same,COCKLEBUR response rating,"cocklebur [3]; POSTEMERGENCE, RATE 0004 G/HA",80
same,COCKLEBUR response rating,"cocklebur [3]; POSTEMERGENCE, RATE 0016 G/HA",90
same,COCKLEBUR response rating,"cocklebur [3]; POSTEMERGENCE, RATE 0062 G/HA",100
same,COCKLEBUR response rating,"cocklebur [3]; PREEMERGENCE, RATE 0004 G/HA",30
same,COCKLEBUR response rating,"cocklebur [3]; PREEMERGENCE, RATE 0016 G/HA",60
same,COCKLEBUR response rating,"cocklebur [3]; PREEMERGENCE, RATE 0062 G/HA",90
same,COTTON response rating,"cotton; POSTEMERGENCE, RATE 0001 G/HA",30
same,COTTON response rating,"cotton; POSTEMERGENCE, RATE 0004 G/HA",100
same,COTTON response rating,"cotton; POSTEMERGENCE, RATE 0016 G/HA",100
same,COTTON response rating,"cotton; POSTEMERGENCE, RATE 0062 G/HA",100
same,COTTON response rating,"cotton; PREEMERGENCE, RATE 0004 G/HA",0
same,COTTON response rating,"cotton; PREEMERGENCE, RATE 0016 G/HA",0
same,COTTON response rating,"cotton; PREEMERGENCE, RATE 0062 G/HA",30
same,CORN response rating,"corn; POSTEMERGENCE, RATE 0001 G/HA",90
same,CORN response rating,"corn; POSTEMERGENCE, RATE 0004 G/HA",100
same,CORN response rating,"corn; POSTEMERGENCE, RATE 0016 G/HA",100
same,CORN response rating,"corn; POSTEMERGENCE, RATE 0062 G/HA",100
same,CORN response rating,"corn; PREEMERGENCE, RATE 0004 G/HA",0
same,CORN response rating,"corn; PREEMERGENCE, RATE 0016 G/HA",30
same,CORN response rating,"corn; PREEMERGENCE, RATE 0062 G/HA",60
same,SOYBEAN response rating,"soybean; POSTEMERGENCE, RATE 0001 G/HA",90
same,SOYBEAN response rating,"soybean; POSTEMERGENCE, RATE 0004 G/HA",100
same,SOYBEAN response rating,"soybean; POSTEMERGENCE, RATE 0016 G/HA",100
same,SOYBEAN response rating,"soybean; POSTEMERGENCE, RATE 0062 G/HA",100
same,SOYBEAN response rating,"soybean; PREEMERGENCE, RATE 0004 G/HA",0
same,SOYBEAN response rating,"soybean; PREEMERGENCE, RATE 0016 G/HA",20
same,SOYBEAN response rating,"soybean; PREEMERGENCE, RATE 0062 G/HA",40
same,WHEAT response rating,"wheat; POSTEMERGENCE, RATE 0001 G/HA",30
same,WHEAT response rating,"wheat; POSTEMERGENCE, RATE 0004 G/HA",50
same,WHEAT response rating,"wheat; POSTEMERGENCE, RATE 0016 G/HA",70
same,WHEAT response rating,"wheat; POSTEMERGENCE, RATE 0062 G/HA",100
same,WHEAT response rating,"wheat; PREEMERGENCE, RATE 0004 G/HA",0
same,WHEAT response rating,"wheat; PREEMERGENCE, RATE 0016 G/HA",30
same,WHEAT response rating,"wheat; PREEMERGENCE, RATE 0062 G/HA",70
same,WILD OATS response rating,"wild oats [4]; POSTEMERGENCE, RATE 0001 G/HA",0
same,WILD OATS response rating,"wild oats [4]; POSTEMERGENCE, RATE 0004 G/HA",30
same,WILD OATS response rating,"wild oats [4]; POSTEMERGENCE, RATE 0016 G/HA",50
same,WILD OATS response rating,"wild oats [4]; POSTEMERGENCE, RATE 0062 G/HA",80
same,WILD OATS response rating,"wild oats [4]; PREEMERGENCE, RATE 0004 G/HA",20
same,WILD OATS response rating,"wild oats [4]; PREEMERGENCE, RATE 0016 G/HA",40
same,WILD OATS response rating,"wild oats [4]; PREEMERGENCE, RATE 0062 G/HA",60
